Experimental data: PMC8213057, “Targeting ALK2: An Open Science Approach to Developing Therapeutics for the Treatment of Diffuse Intrinsic Pontine Glioma” (Journal of Medicinal Chemistry, 2020)

Columns and labels:
TAOK1 = target: T1, TAOK1 (Homo sapiens, UniProt Q7L7X3); experiment: 375-member kinase panel; format: biochemical; settings: Run 1, Run 2; for % enzyme activity: 1 μM; for remaining activity at 1 µM: read-out: % enzyme activity, 1 μM
T1 construct: purchased Reaction Biology Corporation
T1 sequence (Q7L7X3 1-1001): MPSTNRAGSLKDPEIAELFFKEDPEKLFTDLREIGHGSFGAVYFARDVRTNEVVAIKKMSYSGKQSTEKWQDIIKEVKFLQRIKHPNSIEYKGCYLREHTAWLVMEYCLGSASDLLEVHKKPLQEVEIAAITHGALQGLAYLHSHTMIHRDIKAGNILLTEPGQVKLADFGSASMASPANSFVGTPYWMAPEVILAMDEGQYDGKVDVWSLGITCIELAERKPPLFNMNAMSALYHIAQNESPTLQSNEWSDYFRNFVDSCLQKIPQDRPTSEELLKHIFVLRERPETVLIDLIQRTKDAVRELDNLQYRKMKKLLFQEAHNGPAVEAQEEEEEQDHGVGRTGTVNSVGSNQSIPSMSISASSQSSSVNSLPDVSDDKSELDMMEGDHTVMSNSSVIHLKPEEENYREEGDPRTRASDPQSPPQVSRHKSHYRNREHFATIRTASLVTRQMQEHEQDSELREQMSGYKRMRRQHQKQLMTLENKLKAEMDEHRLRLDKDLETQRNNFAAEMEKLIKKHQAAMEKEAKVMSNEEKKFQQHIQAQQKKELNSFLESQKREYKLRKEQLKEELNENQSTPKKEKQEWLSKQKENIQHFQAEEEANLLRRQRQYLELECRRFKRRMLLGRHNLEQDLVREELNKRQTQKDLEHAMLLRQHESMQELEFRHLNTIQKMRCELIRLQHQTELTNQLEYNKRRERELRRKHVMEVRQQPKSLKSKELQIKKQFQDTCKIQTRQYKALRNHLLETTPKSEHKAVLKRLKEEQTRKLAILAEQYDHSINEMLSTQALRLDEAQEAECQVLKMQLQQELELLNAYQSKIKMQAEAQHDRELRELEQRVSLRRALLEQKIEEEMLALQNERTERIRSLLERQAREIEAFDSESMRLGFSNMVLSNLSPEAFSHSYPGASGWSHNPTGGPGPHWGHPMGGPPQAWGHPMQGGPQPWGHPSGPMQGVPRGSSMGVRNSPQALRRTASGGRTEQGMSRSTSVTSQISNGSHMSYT

CDK14/cyclin Y (PFTK1) = CDK14/cyclin Y (PFTK1) (Homo sapiens, UniProt O94921); settings: 1 μM; Run 1, Run 2
HIPK2 = HIPK2 (Homo sapiens, UniProt Q9H2X6); settings: 1 μM; Run 1, Run 2
P38d/MAPK13 = target: T2, P38d/MAPK13 (Homo sapiens, UniProt O15264); experiment: biochemical; settings: read-out: % enzyme activity, 1 μM; Run 1, Run 2
T2 sequence (O15264 1-365): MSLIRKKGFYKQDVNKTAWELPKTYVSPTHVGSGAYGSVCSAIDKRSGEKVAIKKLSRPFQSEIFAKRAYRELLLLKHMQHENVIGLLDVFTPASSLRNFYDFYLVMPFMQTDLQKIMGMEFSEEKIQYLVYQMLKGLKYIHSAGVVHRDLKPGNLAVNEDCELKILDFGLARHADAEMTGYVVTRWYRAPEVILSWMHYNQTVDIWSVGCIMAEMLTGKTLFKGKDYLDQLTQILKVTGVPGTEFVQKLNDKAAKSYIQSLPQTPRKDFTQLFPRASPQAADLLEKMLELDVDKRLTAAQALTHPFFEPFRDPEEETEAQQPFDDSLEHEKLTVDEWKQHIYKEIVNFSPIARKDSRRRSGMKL

TAOK2/TAO1 = target: T3, TAOK2/TAO1 (Homo sapiens, UniProt Q9UL54); experiment: biochemical; settings: read-out: % enzyme activity, 1 μM; Run 1, Run 2
T3 sequence (Q9UL54 1-1235): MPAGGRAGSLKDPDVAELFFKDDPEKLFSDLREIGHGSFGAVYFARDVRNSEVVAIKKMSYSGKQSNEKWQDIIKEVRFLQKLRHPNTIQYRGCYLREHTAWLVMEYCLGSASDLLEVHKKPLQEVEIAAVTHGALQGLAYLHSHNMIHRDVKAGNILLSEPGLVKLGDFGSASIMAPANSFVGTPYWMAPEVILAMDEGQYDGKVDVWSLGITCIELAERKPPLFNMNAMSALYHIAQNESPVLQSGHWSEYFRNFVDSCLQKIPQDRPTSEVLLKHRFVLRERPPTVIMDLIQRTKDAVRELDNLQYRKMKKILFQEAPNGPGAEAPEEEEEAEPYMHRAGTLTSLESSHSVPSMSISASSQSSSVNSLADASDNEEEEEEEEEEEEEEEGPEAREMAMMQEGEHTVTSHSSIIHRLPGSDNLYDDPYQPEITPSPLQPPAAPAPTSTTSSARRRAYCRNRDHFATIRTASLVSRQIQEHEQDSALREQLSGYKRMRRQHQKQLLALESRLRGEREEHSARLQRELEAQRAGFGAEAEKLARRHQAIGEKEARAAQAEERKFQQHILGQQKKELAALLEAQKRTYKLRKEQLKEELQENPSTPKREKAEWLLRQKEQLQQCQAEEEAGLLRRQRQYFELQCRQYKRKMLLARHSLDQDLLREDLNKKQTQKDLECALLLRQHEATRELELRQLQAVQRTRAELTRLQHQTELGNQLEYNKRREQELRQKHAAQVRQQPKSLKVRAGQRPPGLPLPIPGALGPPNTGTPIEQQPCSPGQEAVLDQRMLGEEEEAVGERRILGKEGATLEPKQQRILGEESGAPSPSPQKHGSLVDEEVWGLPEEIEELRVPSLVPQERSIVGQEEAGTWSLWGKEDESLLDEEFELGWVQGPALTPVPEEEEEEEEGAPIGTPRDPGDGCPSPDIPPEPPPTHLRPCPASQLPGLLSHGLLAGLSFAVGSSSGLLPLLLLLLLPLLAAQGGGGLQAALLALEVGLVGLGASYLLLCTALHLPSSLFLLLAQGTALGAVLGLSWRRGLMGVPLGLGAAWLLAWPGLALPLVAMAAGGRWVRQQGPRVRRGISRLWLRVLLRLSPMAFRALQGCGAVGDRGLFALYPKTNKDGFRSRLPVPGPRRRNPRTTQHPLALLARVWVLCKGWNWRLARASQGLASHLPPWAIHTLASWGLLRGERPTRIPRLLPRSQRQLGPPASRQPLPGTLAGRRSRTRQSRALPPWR

Sequence of CDK14/cyclin Y (PFTK1) (O94921 whole entry): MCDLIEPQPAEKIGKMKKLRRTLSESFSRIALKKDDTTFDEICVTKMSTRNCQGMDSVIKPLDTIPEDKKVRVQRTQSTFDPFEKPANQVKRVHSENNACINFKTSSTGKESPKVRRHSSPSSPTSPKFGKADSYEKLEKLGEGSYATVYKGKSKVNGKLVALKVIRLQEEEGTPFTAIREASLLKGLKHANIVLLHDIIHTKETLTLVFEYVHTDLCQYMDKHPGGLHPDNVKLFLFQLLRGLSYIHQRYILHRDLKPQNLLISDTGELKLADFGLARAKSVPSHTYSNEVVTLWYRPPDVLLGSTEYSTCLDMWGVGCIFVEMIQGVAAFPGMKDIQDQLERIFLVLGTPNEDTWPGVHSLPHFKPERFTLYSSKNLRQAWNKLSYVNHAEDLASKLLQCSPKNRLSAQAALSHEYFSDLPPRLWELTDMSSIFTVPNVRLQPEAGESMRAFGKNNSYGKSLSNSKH
Sequence of CDK14/cyclin Y (PFTK1) (Q8ND76 whole entry partner): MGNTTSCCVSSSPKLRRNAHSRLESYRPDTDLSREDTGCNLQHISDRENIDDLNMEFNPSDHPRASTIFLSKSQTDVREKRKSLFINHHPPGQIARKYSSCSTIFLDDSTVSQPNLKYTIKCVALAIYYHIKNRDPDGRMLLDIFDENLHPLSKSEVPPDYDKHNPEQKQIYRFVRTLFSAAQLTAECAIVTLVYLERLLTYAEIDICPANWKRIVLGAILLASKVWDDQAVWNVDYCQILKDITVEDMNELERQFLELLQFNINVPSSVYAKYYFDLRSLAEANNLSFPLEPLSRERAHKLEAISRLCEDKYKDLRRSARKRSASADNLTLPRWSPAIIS
Sequence of HIPK2 (Q9H2X6 whole entry): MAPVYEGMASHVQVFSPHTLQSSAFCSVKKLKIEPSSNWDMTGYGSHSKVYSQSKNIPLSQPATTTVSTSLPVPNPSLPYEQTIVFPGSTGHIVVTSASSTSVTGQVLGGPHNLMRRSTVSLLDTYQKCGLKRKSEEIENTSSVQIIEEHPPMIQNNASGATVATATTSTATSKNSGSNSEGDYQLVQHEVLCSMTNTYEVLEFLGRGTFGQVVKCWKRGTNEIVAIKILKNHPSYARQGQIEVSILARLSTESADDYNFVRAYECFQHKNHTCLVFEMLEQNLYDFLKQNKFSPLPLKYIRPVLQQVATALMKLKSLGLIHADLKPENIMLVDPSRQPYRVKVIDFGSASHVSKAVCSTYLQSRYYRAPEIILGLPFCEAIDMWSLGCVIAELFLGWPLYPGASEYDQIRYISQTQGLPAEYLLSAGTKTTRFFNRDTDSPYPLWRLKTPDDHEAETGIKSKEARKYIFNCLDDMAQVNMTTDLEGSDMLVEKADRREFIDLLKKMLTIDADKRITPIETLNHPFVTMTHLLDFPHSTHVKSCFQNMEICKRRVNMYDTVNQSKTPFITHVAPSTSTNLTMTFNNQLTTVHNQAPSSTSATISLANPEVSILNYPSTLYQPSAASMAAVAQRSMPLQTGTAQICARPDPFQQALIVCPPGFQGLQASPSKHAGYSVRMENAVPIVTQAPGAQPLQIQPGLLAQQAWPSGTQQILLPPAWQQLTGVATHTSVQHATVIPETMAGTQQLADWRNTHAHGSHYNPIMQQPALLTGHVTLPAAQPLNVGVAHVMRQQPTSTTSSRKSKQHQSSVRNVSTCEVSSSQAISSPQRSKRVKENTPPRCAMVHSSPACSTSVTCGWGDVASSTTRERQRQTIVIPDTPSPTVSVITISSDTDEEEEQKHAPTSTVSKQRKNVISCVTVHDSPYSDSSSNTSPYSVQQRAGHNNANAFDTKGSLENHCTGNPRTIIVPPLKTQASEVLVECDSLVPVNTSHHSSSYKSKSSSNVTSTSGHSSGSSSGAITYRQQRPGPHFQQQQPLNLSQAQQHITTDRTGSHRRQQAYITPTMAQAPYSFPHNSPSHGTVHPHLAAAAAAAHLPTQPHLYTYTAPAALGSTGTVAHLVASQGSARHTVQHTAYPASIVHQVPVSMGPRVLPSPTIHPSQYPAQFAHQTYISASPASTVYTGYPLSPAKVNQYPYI

SMILES	% enzyme activity (TAOK1) [%]	remaining activity at 1 µM (TAOK1) [%]	% enzyme activity (CDK14/cyclin Y (PFTK1)) [%]	% enzyme activity (HIPK2) [%]	remaining activity at 1 µM (P38d/MAPK13) [%]	remaining activity at 1 µM (TAOK2/TAO1) [%]
COc1cc(-c2cncc(-c3ccc(N4CCN(C)CC4)cc3)c2C)cc(F)c1C(N)=O [Compound 26a, 2-Fluoro-6-methoxy-4-(4-methyl-5-(4-(4-methylpiperazin-1-yl)phenyl)pyridin-3-yl)benzamide]	60.19	60.3	98.24	97.88	101	88.6
COc1cc(-c2cncc(-c3ccc(N4C[C@@H](C)N(C)[C@@H](C)C4)cc3)c2C)cc(F)c1C(N)=O [Compound 26c, 2-Fluoro-6-methoxy-4-(4-methyl-5-(4-((3R,5S)-3,4,5-trimethylpiperazin-1-yl)phenyl)pyridin-3-yl)benzamide]	60.59	62.2	99.61	101.85	97.7	101
